In brackets after ≈: the same amount, converted by molar mass. Activity calls are given as the source filed them. The calls are words filed in the database; no cut-off is given here.
Assays:
[1] = target: T1, Nuclear receptor ROR-gamma (Homo sapiens, UniProt P51449); experiment: Inverse agonist activity at GST-tagged RORgammat LBD (unknown origin) using fluorescein-D22 co-activator peptide as substrate incubated for 1 hr by TR-FRET assay
T1 sequence (P51449 whole entry): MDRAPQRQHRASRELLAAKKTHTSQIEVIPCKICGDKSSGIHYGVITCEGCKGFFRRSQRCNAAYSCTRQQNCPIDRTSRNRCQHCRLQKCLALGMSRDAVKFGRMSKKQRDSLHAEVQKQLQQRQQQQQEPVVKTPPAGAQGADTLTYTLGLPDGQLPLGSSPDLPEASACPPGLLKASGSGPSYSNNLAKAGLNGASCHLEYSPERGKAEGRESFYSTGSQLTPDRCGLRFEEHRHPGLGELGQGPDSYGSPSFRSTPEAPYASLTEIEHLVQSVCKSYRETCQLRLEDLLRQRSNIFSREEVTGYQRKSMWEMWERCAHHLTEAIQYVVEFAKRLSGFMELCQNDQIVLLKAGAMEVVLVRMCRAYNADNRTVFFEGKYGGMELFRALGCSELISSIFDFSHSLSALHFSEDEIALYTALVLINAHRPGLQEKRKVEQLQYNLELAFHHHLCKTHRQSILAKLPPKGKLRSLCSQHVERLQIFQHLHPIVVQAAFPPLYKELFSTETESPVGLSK

[2] = target: T2, Nuclear receptor ROR-gamma (Mus musculus, UniProt P51450); experiment: Inverse agonist activity at RORgammat in mouse splenocytes derived naive T cells assessed as suppression of T cell differentiation to Th17 cells by measuring IL-17 secretion in presence of […]/anti-IFNgamma/TGFbeta/IL-6 for 6 days by ELISA; format: cell-based
T2 sequence (P51450 whole entry): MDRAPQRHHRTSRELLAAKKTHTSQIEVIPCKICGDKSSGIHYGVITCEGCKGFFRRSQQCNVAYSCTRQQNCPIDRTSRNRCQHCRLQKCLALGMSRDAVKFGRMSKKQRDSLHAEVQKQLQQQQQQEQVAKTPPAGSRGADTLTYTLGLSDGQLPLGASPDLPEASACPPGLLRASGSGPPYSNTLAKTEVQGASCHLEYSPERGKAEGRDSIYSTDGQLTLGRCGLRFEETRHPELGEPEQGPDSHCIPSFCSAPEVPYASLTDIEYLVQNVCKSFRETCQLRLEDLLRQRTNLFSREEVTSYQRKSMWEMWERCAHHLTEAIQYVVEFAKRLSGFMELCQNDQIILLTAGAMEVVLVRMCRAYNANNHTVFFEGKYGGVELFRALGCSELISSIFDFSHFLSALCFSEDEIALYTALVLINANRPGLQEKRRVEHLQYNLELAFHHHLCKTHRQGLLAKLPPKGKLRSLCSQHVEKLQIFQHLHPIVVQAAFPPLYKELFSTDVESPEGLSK

[3] = target: T3, Nuclear receptor ROR-gamma (Mus musculus) (UniProt P51450); experiment: Transrepression of RORgammat in Balb/c mouse splenocytes assessed as inhibition of anti-CD3/anti-CD28 stimulated IL-17 gene expression at 30 uM measured after 24 hrs in presence of anti-CD3/anti-CD28; format: cell-based
T3 sequence (whole entry): T2 sequence (P51450 whole entry)

[4] = Clearance in Balb/c mouse at 3 mg/kg, iv administered as single dose by LC-MS/MS analysis; format: ADME, organism-based; settings: in vivo
[5] = target: T1, Nuclear receptor ROR-gamma; experiment: Transactivation of recombinant GAL4-DBD fused RORgammat LBD (unknown origin) expressed in HEK293T cells incubated for 18 to 24 hrs by dual-Glo luciferase assay; format: cell-based
[6] = Drug metabolism in human pooled liver microsomes assessed as oxidation metabolic rate at 1 uM preincubated for 5 mins followed by NADPH addition after 30 mins by LC-MS/MS analysis; format: ADME, Microsome; settings: 0.5 h
[7] = Drug metabolism in mouse liver microsomes assessed as oxidation metabolic rate at 1 uM preincubated for 5 mins followed by NADPH addition after 30 mins by LC-MS/MS analysis; format: ADME, Microsome; settings: 0.5 h
[8] = AUC (0 to t) in Balb/c mouse at 3 mg/kg, iv administered as single dose by LC-MS/MS analysis; format: ADME, organism-based; settings: in vivo
[9] = target: T3, Nuclear receptor ROR-gamma (Mus musculus); experiment: Transrepression of RORgammat in Balb/c mouse splenocytes assessed as inhibition of anti-CD3/anti-CD28 stimulated IL-17 gene expression at 0.3 uM measured after 24 hrs in presence of anti-CD3/anti-CD28; format: cell-based
[10] = Drug metabolism in rat liver microsomes assessed as oxidation metabolic rate at 1 uM preincubated for 5 mins followed by NADPH addition after 30 mins by LC-MS/MS analysis; format: ADME, Microsome; settings: 0.5 h
[11] = Half life in Balb/c mouse at 3 mg/kg, iv administered as single dose by LC-MS/MS analysis; format: ADME, organism-based; settings: in vivo
[12] = Oral bioavailability in Balb/c mouse at 10 mg/kg administered via gavage by LC-MS/MS analysis; format: ADME, organism-based; settings: in vivo
[13] = target: T3, Nuclear receptor ROR-gamma (Mus musculus); experiment: Transrepression of RORgammat in Balb/c mouse splenocytes assessed as inhibition of anti-CD3/anti-CD28 stimulated IL-17 gene expression at 3 uM measured after 24 hrs in presence of anti-CD3/anti-CD28; format: cell-based
[14] = target: Cytochrome P450 2C19 (Homo sapiens, UniProt P33261); experiment: Inhibition of CYP2C19 in human liver microsomes using (S)-mephenytoin as substrate preincubated for 5 mins followed by NADPH addition measured after 40 mins by LC-MS/MS analysis
Cytochrome P450 2C19, sequence (P33261 whole entry): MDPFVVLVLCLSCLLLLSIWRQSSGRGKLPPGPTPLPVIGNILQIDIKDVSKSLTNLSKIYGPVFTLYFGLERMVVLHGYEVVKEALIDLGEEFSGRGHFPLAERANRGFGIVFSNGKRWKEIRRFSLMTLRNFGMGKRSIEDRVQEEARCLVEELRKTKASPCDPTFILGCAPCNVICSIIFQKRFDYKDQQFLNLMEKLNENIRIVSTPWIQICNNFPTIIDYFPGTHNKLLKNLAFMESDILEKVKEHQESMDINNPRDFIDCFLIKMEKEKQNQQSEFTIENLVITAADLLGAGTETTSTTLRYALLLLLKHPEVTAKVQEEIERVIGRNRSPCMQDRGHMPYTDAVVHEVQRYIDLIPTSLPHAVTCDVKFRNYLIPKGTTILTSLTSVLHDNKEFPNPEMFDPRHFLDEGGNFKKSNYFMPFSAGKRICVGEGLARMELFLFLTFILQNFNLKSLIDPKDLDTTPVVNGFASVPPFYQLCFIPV

[15] = target: T4, Cytochrome P450 3A4 (Homo sapiens, UniProt P08684); experiment: Inhibition of CYP3A4 in human liver microsomes using midazolam as substrate preincubated for 5 mins followed by NADPH addition measured after 10 mins by LC-MS/MS analysis
T4 sequence (P08684 whole entry): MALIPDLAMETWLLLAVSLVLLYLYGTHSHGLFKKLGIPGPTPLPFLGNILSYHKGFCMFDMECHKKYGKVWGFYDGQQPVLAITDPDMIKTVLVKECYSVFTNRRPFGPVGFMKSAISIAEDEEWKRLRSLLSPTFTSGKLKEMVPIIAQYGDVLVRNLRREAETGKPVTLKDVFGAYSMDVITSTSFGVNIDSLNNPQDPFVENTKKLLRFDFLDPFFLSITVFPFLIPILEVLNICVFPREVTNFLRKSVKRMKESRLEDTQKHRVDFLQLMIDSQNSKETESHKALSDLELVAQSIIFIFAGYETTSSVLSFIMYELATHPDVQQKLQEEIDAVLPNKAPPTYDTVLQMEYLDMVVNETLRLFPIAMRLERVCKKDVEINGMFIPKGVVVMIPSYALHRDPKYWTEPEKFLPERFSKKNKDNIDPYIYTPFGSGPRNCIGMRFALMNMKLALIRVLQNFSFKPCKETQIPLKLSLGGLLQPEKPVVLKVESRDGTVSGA

[16] = Solubility of the compound at pH 7.4; settings: buffer
[17] = target: Cytochrome P450 2C9 (Homo sapiens, UniProt P11712); experiment: Inhibition of CYP2C9 in human liver microsomes using diclofenac as substrate preincubated for 5 mins followed by NADPH addition measured after 10 mins by LC-MS/MS analysis
Cytochrome P450 2C9, sequence (P11712 whole entry): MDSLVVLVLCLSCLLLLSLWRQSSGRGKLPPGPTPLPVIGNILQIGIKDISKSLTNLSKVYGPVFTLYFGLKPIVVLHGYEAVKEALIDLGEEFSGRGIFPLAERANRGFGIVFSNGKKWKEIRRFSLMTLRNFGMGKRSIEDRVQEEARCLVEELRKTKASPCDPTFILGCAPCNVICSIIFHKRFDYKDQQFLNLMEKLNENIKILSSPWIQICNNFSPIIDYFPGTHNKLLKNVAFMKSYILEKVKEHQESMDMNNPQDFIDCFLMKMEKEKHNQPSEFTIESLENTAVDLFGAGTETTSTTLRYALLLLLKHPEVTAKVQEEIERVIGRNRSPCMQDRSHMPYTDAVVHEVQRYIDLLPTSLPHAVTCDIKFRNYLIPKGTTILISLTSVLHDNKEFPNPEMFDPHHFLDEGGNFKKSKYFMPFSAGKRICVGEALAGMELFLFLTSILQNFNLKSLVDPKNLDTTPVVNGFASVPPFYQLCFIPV

[18] = Metabolic stability in mouse liver microsomes assessed as parent compound remaining at 1 uM preincubated for 5 mins followed by NADPH addition after 30 mins by LC-MS/MS analysis; format: ADME, Microsome; settings: read-out: Stability
[19] = Metabolic stability in rat liver microsomes assessed as parent compound remaining at 1 uM preincubated for 5 mins followed by NADPH addition after 30 mins by LC-MS/MS analysis; format: ADME, Microsome; settings: read-out: Stability
[20] = Solubility of the compound at pH 2.1; settings: buffer
[21] = target: T4, Cytochrome P450 3A4; experiment: Inhibition of CYP3A4 in human liver microsomes using testosterone as substrate preincubated for 5 mins followed by NADPH addition measured after 10 mins by LC-MS/MS analysis
[22] = target: T5, Cytochrome P450 1A2 (Homo sapiens, UniProt P05177); experiment: Inhibition of CYP1A2 in human liver microsomes using phenacetin as substrate preincubated for 5 mins followed by NADPH addition measured after 10 mins by LC-MS/MS analysis
T5 sequence (P05177 whole entry): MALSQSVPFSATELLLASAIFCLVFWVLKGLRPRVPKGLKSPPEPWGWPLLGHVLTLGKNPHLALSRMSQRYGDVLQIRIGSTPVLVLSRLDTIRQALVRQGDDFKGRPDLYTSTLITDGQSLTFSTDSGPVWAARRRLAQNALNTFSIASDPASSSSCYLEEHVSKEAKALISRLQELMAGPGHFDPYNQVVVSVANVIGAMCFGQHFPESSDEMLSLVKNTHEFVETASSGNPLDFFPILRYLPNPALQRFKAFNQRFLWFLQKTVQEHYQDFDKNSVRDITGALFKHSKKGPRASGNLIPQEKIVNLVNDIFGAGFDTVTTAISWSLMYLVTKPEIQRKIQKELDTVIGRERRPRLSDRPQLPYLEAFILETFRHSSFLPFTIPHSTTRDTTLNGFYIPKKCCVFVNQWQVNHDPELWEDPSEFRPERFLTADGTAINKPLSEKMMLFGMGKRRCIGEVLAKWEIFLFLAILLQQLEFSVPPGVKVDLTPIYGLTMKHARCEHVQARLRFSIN

[23] = Metabolic stability in human liver microsomes assessed as parent compound remaining at 1 uM preincubated for 5 mins followed by NADPH addition after 30 mins by LC-MS/MS analysis; format: ADME, Microsome; settings: read-out: Stability
[24] = Solubility of the compound at pH 4; settings: buffer
[25] = target: Cytochrome P450 2D6 (Homo sapiens, UniProt P10635); experiment: Inhibition of CYP2D6 in human liver microsomes using dextromethorphan as substrate preincubated for 5 mins followed by NADPH addition measured after 10 mins by LC-MS/MS analysis
Cytochrome P450 2D6, sequence (P10635 whole entry): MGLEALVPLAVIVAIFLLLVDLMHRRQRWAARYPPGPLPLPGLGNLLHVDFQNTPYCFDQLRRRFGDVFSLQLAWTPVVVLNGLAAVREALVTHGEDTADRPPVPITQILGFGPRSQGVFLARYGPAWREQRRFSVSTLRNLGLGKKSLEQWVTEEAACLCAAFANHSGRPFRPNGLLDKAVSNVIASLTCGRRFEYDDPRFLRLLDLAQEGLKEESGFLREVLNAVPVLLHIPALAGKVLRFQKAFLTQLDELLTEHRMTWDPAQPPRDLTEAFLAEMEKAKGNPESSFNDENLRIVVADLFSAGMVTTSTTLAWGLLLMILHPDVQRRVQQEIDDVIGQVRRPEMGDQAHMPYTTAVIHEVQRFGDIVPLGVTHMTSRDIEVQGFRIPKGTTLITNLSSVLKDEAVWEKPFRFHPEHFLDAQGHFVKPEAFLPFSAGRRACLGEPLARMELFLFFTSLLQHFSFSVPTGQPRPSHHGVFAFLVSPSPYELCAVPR

[26] = system: Mus musculus; experiment: Protection against imiquimod-induced skin inflammation in BALB/c mouse psoriasis model assessed as decrease in ear thickness administered topically at 25 mg qd treated for 1 hr before IMQ application measured at day 5; format: functional, organism-based
[27] = system: Mus musculus; experiment: Protection against imiquimod-induced skin inflammation in BALB/c mouse psoriasis model assessed as decrease in scaling administered topically at 25 mg qd treated for 1 hr before IMQ application measured at day 5; format: functional, organism-based
[28] = target: T6, Nuclear receptor ROR-gamma (Homo sapiens) (UniProt P51449); experiment: Transactivation of recombinant GAL4-DBD fused RORgammat LBD (unknown origin) expressed in HEK293T cells at 10 uM incubated for 18 to 24 hrs by dual-Glo luciferase assay relative to control; format: cell-based
T6 sequence (whole entry): T1 sequence (P51449 whole entry)

[29] = Half life in mouse at 3 mg/kg, iv; format: ADME, organism-based; settings: in vivo
[30] = Clearance in mouse at 3 mg/kg, iv; format: ADME, organism-based; settings: in vivo
[31] = AUC (0 to 24 hrs) in mouse at 10 mg/kg, po; format: ADME, organism-based; set-up: dose 10 mg/kg, time < 24 hr, route oral; settings: in vivo
[32] = Tmax in mouse at 10 mg/kg, po; format: ADME, organism-based; settings: in vivo
[33] = target: T7, Nuclear receptor ROR-alpha (Homo sapiens, UniProt P35398); experiment: Inhibition of GAL4-DBD fused RORalpha LBD (unknown origin) expressed in HEK293T cells; format: cell-based
T7 sequence (P35398 whole entry): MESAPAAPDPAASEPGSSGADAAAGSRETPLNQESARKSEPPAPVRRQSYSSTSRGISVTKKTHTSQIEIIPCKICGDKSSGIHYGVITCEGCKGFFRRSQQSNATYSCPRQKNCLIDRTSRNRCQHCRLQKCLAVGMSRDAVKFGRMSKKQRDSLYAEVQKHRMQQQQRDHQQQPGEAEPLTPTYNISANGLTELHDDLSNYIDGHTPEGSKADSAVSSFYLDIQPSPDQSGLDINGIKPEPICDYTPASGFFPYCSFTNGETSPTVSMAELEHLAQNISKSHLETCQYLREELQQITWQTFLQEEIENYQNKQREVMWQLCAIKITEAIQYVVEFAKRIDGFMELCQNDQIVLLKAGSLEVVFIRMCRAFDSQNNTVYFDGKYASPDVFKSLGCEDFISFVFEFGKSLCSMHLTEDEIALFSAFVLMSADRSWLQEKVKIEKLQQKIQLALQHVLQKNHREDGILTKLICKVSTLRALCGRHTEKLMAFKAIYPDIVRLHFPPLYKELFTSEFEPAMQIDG

[34] = Volume of distribution at steady state in mouse at 3 mg/kg, iv; format: ADME, organism-based; settings: in vivo, read-out: Vdss
[35] = Cmax in mouse at 10 mg/kg, po; format: ADME, organism-based; set-up: dose 10 mg/kg, route oral; settings: in vivo
[36] = Oral bioavailability in mouse at 10 mg/kg; format: ADME, organism-based; settings: in vivo

SMILES	IC50 [1] [µM]	IC50 [2] [µM]	inhibition [3] [%]	clearance [4] [mL/min/kg]	IC50 [5] [µM]	Drug metabolism [6] [nmol/min/mg]	Drug metabolism [7] [nmol/min/mg]	AUC(0-t) [8] [µM·h]	inhibition [9] [%]	Drug metabolism [10] [nmol/min/mg]	half-life [11] [h]	bioavailability [12] [%]	inhibition [13] [%]	IC50 [14] [µM]	IC50 [15] [µM]	solubility [16] [µM]	IC50 [17] [µM]	remaining at 0.5 h, 1 µM [18] [%]	remaining at 0.5 h, 1 µM [19] [%]	remaining at 0.5 h, 1 µM [23] [%]	further results
O=C(O)c1ccc(-c2nn(C(=O)c3c(Cl)cccc3Cl)c3ccccc23)cc1	0.002	0.043	52	12.9	0.02	0.04	< 0.04	13.2	15	0.19	1.12	42	48	–	–	–	–	–	–	–	–
O=C(O)c1ccc(-n2cc(C(=O)c3c(Cl)cccc3Cl)c3ccccc32)cc1	0.0016	0.058	–	17	0.028	< 0.04	< 0.04	12.5	–	0.08	4.6	53	–	67.6	> 100	19 (≈ 7.79 µg/mL)	3.8	99	76	99	solubility [20]: < 1 µM; IC50 [21]: 15.5 µM; IC50 [22]: 29.9 µM; solubility [24]: < 1 µM; IC50 [25]: > 100 µM
C[C@H]1C[C@H]2[C@@H]3CCC4=CC(=O)C=C[C@]4(C)[C@@]3(F)[C@@H](O)C[C@]2(C)[C@@]1(O)C(=O)CO	–	–	–	–	–	–	–	–	–	–	–	–	–	–	–	–	–	–	–	–	Activity [26]: Active; Activity [27]: Active
O=C(O)c1ccc(-n2cc(C(=O)c3c(Cl)cccc3Cl)c3ncccc32)cc1	–	–	–	–	–	–	–	–	–	–	–	–	–	–	–	–	–	100	96	94	inhibition [28]: 3%
Cc1cccc(Cl)c1C(=O)c1cn(-c2ccc(C(=O)O)cc2)c2ccccc12	–	–	56	–	0.025	–	–	–	3	–	–	–	49	> 50	> 50	> 2000	13.5	85	83	89	half-life [29]: 3.2 h; clearance [30]: 9.6 mL/min/kg; solubility [20]: 1 µM (≈ 0.39 µg/mL); AUC(0-t) at 24 h [31]: 19.6 µM·h; IC50 [22]: > 50 µM; Tmax [32]: 0.25 h; solubility [24]: 1 µM (≈ 0.39 µg/mL); IC50 [25]: > 50 µM; IC50 [33]: > 30 µM; Vd [34]: 2.5 L/kg; Cmax [35]: 18.3 µM; bioavailability [36]: 45%
O=C(O)c1ccc(-n2cc(C(=O)c3c(Cl)cccc3C(F)(F)F)c3cccc(F)c32)cc1	–	–	55	–	–	–	–	–	18	–	–	–	46	–	–	–	–	88	100	88	–

Source: ChEMBL document CHEMBL4346735, “Discovery and pharmacological evaluation of indole derivatives as potent and selective RORγt inverse agonist for multiple autoimmune conditions” (Bioorg Med Chem Lett, 2019)
